Measurements: US5990104A, “Polycyclic alcaloid-derivatives as NMDA-receptor antagonists” (priority 1995, dated 1999)

Legend:
Format in all cases: in vivo
[1] = system: NMDA-induced convulsions; assay: Neuroprotective/anticonvulsant activity against NMDA-induced convulsions and mortality in mice; conditions: for CD50 (95% confidence interval): icv, NMDA 1 nmole/mouse; for CD50 (95% confidence interval) / time course of protecting effects: mice; for neuroprotectant activity, dose dependence: NMDA challenge in mice, FIGS. 1-3; for time course of protecting effects: i.c.v. preadministration at various doses, NMDA challenge
Procedure: The term CD50 as shown in Table 1 is defined as the dose of drug which induces a 50% reduction in the number of deaths caused by NMDA administration.
For purposes of comparison, the compounds of the present invention and reference standards were administered to mice and the time course of neuroprotectant activity was determined subsequent to challenge by NMDA. Compounds were administered i.c.v. or i.p. at different times and concentrations prior to injection of NMDA (1 nmol/mouse, I.C.V.). The mortality rate (CD50) TABLE I and the response curves.
In FIG. 1, dextrorphan was i.c.v. preadministered at a concentration of 1.0 (closed circle); 5.0 (open square); and 10 (closed square) nmole/mouse. The open circle represents preadministration of saline at a concentration of 10 μl/mouse.
A does dependent time course profile of the neuroprotectant activity against NMDA induced convulsions of compound #9 in mice is illustrated in FIG. 3. […] In both FIGS. 2 and 3, the respective compound was preadministered at (open circle); 50 (closed circle); and 100 (closed square) nmole/mouse.
Comparison of anticonvulsant activity of compounds of the
present invention and dextrorphan against NMDA-induced
convulsions in mice (at 1 nmole/mouse)

[2] = Motor coordination by rotarod; conditions: 8 rpm, Compound #13 compared to dextrorphan
Procedure: Motor effects illicited by various antagonists were assessed using a rotarod treadmill (model 7600, UGO Basile, Italy). The method used was similar to the procedure described by Dunhamand Miya (J. Am. Pharmac. Assoc. 46 208-209-1957). The apparatus consisted of a rod of 2.5 cm diameter which was suspended horizontally 50 cm above a working area. The rod was turned at a speed of 8 rpm. Circular perplex separators were placed at intervals along the rod so that five animals could be tested simultaneously. All animals were conditioned to the rod for two consecutive days prior to experimentation.
The results of a study in which comparative motor impairment caused by Compound #13 was compared to dextrorphan, as assessed by rotarod.

[3] = Locomotion and falling behaviour; conditions: I.C.V., mice, observed 15 to 30 minutes
Procedure: Mice were place individually in observation cages for a 60 minute habituation period. They were injected I.C.V. with test compounds and observed for 15 to 30 minutes. Locomotion and falling behavior were assessed according to the procedure of Koek and Colpaert (J. Pharm. Exp. Therm. 252 349-357, 1990). For each animal, the presence of locomotor activity and falling behaviour was recorded. Statistical significance of drug-induced changes in the occurrence of a particular behaviour was tested by means of the method of Fray et al. (Psycopharmacol 69 253-259, 1980). MK-801, known to have intrinsic neurotoxicity, induced falling behaviour at doses as low as 1.5 nmol/mouse.

CC12CCCCSC(Cc3ccc(O)cc31)C2N (single isomer, unassigned; (+)) [Compound #9b, (+)-trans-5,6,7,8,9,11,12-heptahydro-10-thia-3-hydroxy-5-methyl-5,11-methanobenzocyclodecen-13amine]
CD50 (95% confidence interval) [1]: 1.58 (0.95-2.62) nmo1/mouse

CC12CCCCSC(Cc3ccc(O)cc31)C2N (single isomer, unassigned; (-)) [Compound #9a, (-)-trans-5,6,7,8,9,11,12-heptahydro-10-thia-3-hydroxy-5-methyl-5,11-methanobenzocyclodecen-13-amine]
CD50 (95% confidence interval) [1]: 2.90 (1.75-4.85) nmo1/mouse

COc1ccc2c(c1)C1(C)CCCCSC(C2)C1N (stereo not shown) [Compound #8b, 5,6,7,8,9,11,12-heptahydro-3-methoxy-5-methyl-10-thia-5,11-methanobenzocyclodecen-13-amine]
CD50 (95% confidence interval) [1]: 7.64 (4.8-12.0) nmo1/mouse

CC12CCCCSC(Cc3ccc(O)cc31)C2N (stereo not shown) [Compound #9, 5,6,7,8,9,11,12-heptahydro-3-hydroxy-5-methyl-10-thia-5,11-methanobenzocyclodecen-13-amine]
neuroprotectant activity, dose dependence [1]: dose dependent neuroprotectant activity effect | time course of protecting effects [1]: time-dependent decreases in the protective effects | CD50 (95% confidence interval) [1]: 0.95 (0.62-1.45) nmo1/mouse

CC12CCCCSC(Cc3ccc(O)cc31)C2NO (stereo not drawn) [Compound #10, 5,6,7,8,9,11,12-heptahydro-3-hydroxy-5-methyl-10-thia-5,11-methanobenzocyclodecene-13-β-hydroxylamine]
CD50 (95% confidence interval) [1]: 1.79 (0.99-3.25) nmo1/mouse

CC12CCCCSC(Cc3ccc(O)cc31)C2NC(=N)N (stereo not drawn) [Compound #11, trans-5,6,7,8,9,11,12-heptahydro-10-thia-3-hydroxy-5-methyl-5,11-methanobenzocyclodecen-13-guanidine]
potency relative to Dextrorphan ([1]; NMDA-induced convulsions in mice): approximately 3 fold | anticonvulsive activity ([1]; NMDA-induced convulsions in mice, in words): greatest activity | CD50 (95% confidence interval) [1]: 0.16 (0.11-0.25) nmo1/mouse

CC12CCCCCC(Cc3ccc(O)cc31)C2N (stereo not shown) [Compound #13, 5,6,7,8,9,11,12-heptahydro-3-hydroxy-5-methyl-5, 11-methanobenzocyclodecene-13-amine, reference compound]
neuroprotectant activity, dose dependence [1]: dose dependent neuroprotectant activity effect | time course of protecting effects [1]: time-dependent decreases in the protecting effects | CD50 (95% confidence interval) [1]: 28.7 (15.3-53.8) nmo1/mouse | percentage of animals showing motor effects [2]: higher for animals treated with dextrorphan than for animals treated with Compound #13

CN1CC[C@@]23CCCC[C@@H]2[C@@H]1Cc1ccc(O)cc13 [Dextrorphan, dextrorphan, reference compound]
neuroprotectant activity, dose dependence [1]: dose dependent neuroprotectant activity effect | time course of protecting effects [1]: time-dependent decreases in the protecting effects | CD50 (95% confidence interval) [1]: 0.55 (0.39-0.78) nmo1/mouse | percentage of animals showing motor effects [2]: higher for animals treated with dextrorphan than for animals treated with Compound #13

C[C@]12N[C@H](Cc3ccccc31)c1ccccc12 [MK-801]
dose inducing falling behaviour (as low as) [3]: 1.5 nmol/mouse
